Assay results reported in patent publication US20250345295A1, “LMK235 COMPOSITIONS AND METHODS” (UNM Rainforest Innovations, priority 2024, published 2025).
“And” between values parts separate entries of the source, which are not always exact repeats. Equal entries are not always repeated.

System: differentially expressed genes in TG
Assay: RNAseq gene expression profiling of TG
Type: in vivo, mouse
Settings: for Log2FC Ascl1 / Log2FC Klf2 / Log2FC Klf4 / Log2FC Klf5 / Log2FC Klf6 / Log2FC Klf7 / Log2FC Klf9 / Log2FC Klf13 / Log2FC Klf15 / Log2FC Klf16 / Log2FC L-Myc (Mycl) / Log2FC Lin28b / Log2FC Myt1l / Log2FC N-Myc (Mycn) / Log2FC Nanog / Log2FC NeuroD1 / Log2FC Sirt1 / Log2FC Sox2 / Log2FC Sox11 / Log2FC Stat3 / Log2FC c-Myc (Myc): TG
Description: Gene expression profiling was performed on TG from mice with/without nerve injury during the acute phase (three weeks post injury) in TIC mice and after transition to chronic pain (10 weeks post injury) in FRICT-ION mice by Quick Biology Inc. (Monrovia, CA).
Total RNA from ipsilateral TG was isolated using the Rneasy Mini Kit (Qiagen, Valencia, CA). Gene expression profiling and analysis with RNA was done by Quick Biology Inc. (Monrovia, CA). RNAseq library preparation was performed by Quick Biology Inc. (Monrovia, CA), sequencing was performed using an Illumina HiSeq 4000 at 40 million reads per sample. The reads were first mapped to the latest UCSC transcript set using Bowtie2 version 2.1.0 and the gene expression level was estimated using RSEM v1.2.15. Differentially expressed genes were identified using the edgeR program. Genes showing altered expression with p<0.05 were considered differentially expressed.

[1] = TG RNAseq, LMK235-treated vs untreated FRICT-ION mice
[2] = TG RNAseq, male FRICT-ION mice treated with LMK235 vs Vehicle, week 10
[3] = TG RNAseq, male FRICT-ION mice treated with LMK235 vs naive, week 10
[4] = LMK235 Treated FRICT-ION versus Naive
[5] = LMK235 Treated FRICT-ION versus Untreated FRICT-ION

Cc1cc(C)cc(C(=O)NOCCCCCC(=O)NO)c1 [LMK235, N-[[6-(Hydroxyamino)-6-oxohexyl]oxy]-3,5-dimethyl-benzamide]
Nav3 downregulated, fold [1]: 1.19 fold | Net1 upregulated, fold [1]: 1.12 fold | Neurod4 upregulated, fold [1]: 1.57 fold | Nf2 upregulated, fold [1]: 1.04 fold | Ngef downregulated, fold [1]: 1.34 fold | Nkain2 downregulated, fold [1]: 1.14 fold | Nova1 upregulated, fold [1]: 1.04 fold | Nras downregulated, fold [1]: 1.03 fold | Nrg2 upregulated, fold [1]: 1.10 fold | Nrg3 downregulated, fold [1]: 1.00 fold | Ntrk1 upregulated, fold [1]: 1.80 fold | Nts downregulated, fold [1]: 1.74 fold | Scn2a Scn2a1 downregulated, fold [1]: 1.04 fold | Scn3a downregulated, fold [1]: 1.01 fold | Scn7a downregulated, fold [1]: 1.07 fold | Scn8a upregulated, fold [1]: 1.05 fold | Scn9a upregulated, fold [1]: 1.29 fold | Trpc6 upregulated, fold [1]: 1.08 fold | Trpm3 upregulated, fold [1]: 1.19 fold | Trpm4 upregulated, fold [1]: 1.05 fold | Trpv6 downregulated, fold [1]: 1.19 fold | Fold change 1700047I17Rik2 [2]: 3.82 fold | Fold change 8430408G22Rik [2]: 2.46 fold | Fold change Acta2 [2]: 2.01 fold | Fold change Amy2a5 [2]: 2.03 fold | Fold change Armc3 [2]: 2.04 fold | Fold change Asb4 [2]: 1.53 fold | Fold change C1ql2 [2]: 2.34 fold | Fold change C1ql4 [2]: 4.76 fold | Fold change Calcb [2]: 2.17 fold | Fold change Ccdc153 [2]: 2.32 fold | Fold change Cckbr [2]: −2.32 fold | Fold change Crhbp [2]: 2.79 fold | Fold change Cutal [2]: 2.10 fold | Fold change Cyp26b1 [2]: 2.99 fold | Fold change Cytl1 [2]: 2.14 fold | Fold change Dmrt3 [2]: 2.46 fold | Fold change Eif3j2 [2]: 3.88 fold | Fold change Evi2a-evi2b [2]: 136.10 fold | Fold change Fev [2]: 2.35 fold | Fold change Gata3 [2]: 3.74 fold | Fold change Gh [2]: −25.22 fold | Fold change Gm833 [2]: 2.45 fold | Fold change Gm8221 [2]: 241.23 fold | Fold change Gm13306 [2]: 48.23 fold | Fold change Gpx2 [2]: 3.17 fold | Fold change Gucy2f [2]: 2.13 fold | Fold change H19 [2]: 2.05 fold | Fold change Hdac5 [2]: −2.03 fold | Fold change Hist2h3c2 [2]: 128.58 fold | Fold change Hoxb9 [2]: −16.50 fold and −16.5 fold | Fold change Hoxc8 [2]: −8.22 fold | Fold change Hoxd8 [2]: −4.14 fold | Fold change Irx4 [2]: 2.51 fold | Fold change Isl1 [2]: 2.30 fold | Fold change Kcnmb1 [2]: 2.15 fold | Fold change Mgl2 [2]: 2.39 fold | Fold change Myom1 [2]: 2.01 fold | Fold change Nkx6-3 [2]: 2.10 fold | Fold change Onecut3 [2]: 2.22 fold | Fold change P2rx2 [2]: −1.84 fold | Fold change P2rx4 [2]: −2.08 fold | Fold change Pappa2 [2]: 2.16 fold | Fold change Pde4c [2]: 2.45 fold | Fold change Ppp1r1c [2]: 2.51 fold | Fold change Sec16b [2]: 1.98 fold | Fold change Serpina3h [2]: 2.51 fold | Fold change Shox2 [2]: 2.49 fold | Fold change Slc6a4 [2]: 4.38 fold | Fold change Slc18a2 [2]: 2.01 fold | Fold change Slfn4 [2]: −2.32 fold | Fold change Sp8 [2]: 2.42 fold | Fold change Tmprss11d [2]: 2.98 fold | Fold change Tph2 [2]: 4.18 fold | Fold change Tyrp1 [2]: 3.03 fold | Fold change Vmn2r84 [2]: 2.71 fold | Fold change lc6a2 [2]: 2.91 fold | Gh downregulated, fold [2]: 25.22 fold | Hoxb9 downregulated, fold [2]: 16.50 fold | Hoxc8 downregulated, fold [2]: 8.22 fold | Hoxd8 downregulated, fold [2]: 4.14 fold | P2rx4 downregulated, fold [2]: 2.08 fold | Slfn4 downregulated, fold [2]: 2.32 fold | Fold change 1500015O10Rik [3]: 4.68 fold | Fold change 4833423E24Rik [3]: 2.10 fold | Fold change Ache [3]: −1.12 fold | Fold change Ackr4 [3]: 3.74 fold | Fold change Aqp1 [3]: 7.41 fold and 7.4 fold | Fold change Calml4 [3]: 2.88 fold | Fold change Car12 [3]: 6.21 fold | Fold change Ccdc135 [3]: 2.84 fold | Fold change Cldn1 [3]: 2.48 fold | Fold change Cldn2 [3]: 8.46 fold | Fold change Col8a2 [3]: 3.06 fold | Fold change Crhr2 [3]: 2.35 fold | Fold change Enpp2 [3]: 2.22 fold | Fold change F5 [3]: 6.19 fold | Fold change Fap [3]: 3.16 fold | Fold change Folr1 [3]: 11.92 fold and 11.91 fold | Fold change Gmnc [3]: 2.40 fold | Fold change Gvin1 [3]: 5.55 fold | Fold change Hdac5 [3]: −1.13 fold | Fold change Hdac10 [3]: −1.20 fold | Fold change Igfbpl1 [3]: 2.39 fold | Fold change Il1a [3]: 2.21 fold | Fold change Inmt [3]: 6.34 fold | Fold change Kcne2 [3]: 17.29 fold | Fold change Kcnj13 [3]: 7.84 fold | Fold change Kl [3]: 5.00 fold | Fold change Krt18 [3]: 6.56 fold | Fold change Lbp [3]: 3.97 fold | Fold change Lum [3]: 2.08 fold | Fold change Mfrp [3]: 4.30 fold | Fold change Otx2 [3]: 5.17 fold | Fold change Postn [3]: 2.24 fold | Fold change Prr32 [3]: 5.41 fold | Fold change Rbm14-rbm4 [3]: 66.16 fold | Fold change Slc4a5 [3]: 4.83 fold | Fold change Sostdc1 [3]: 15.70 fold | Fold change Tgtp1 [3]: 2.49 fold | Fold change Tmem72 [3]: 6.47 fold | Fold change Tmprss11a [3]: 37.90 fold | Fold change Tnfsf13 [3]: 2.14 fold | Fold change Ttr [3]: 23.21 fold | Fold change Wfdc2 [3]: 4.61 fold | Log2FC Ascl1 [4]: 1.16 Log2FC | Log2FC Klf2 [4]: −1.57 Log2FC | Log2FC Klf4 [4]: −1.23 Log2FC | Log2FC Klf5 [4]: 1.25 Log2FC | Log2FC Klf6 [4]: 1.03 Log2FC | Log2FC Klf7 [4]: 1.12 Log2FC | Log2FC Klf9 [4]: −1.03 Log2FC | Log2FC Klf13 [4]: −1.16 Log2FC | Log2FC Klf15 [4]: −1.26 Log2FC | Log2FC Klf16 [4]: −1.08 Log2FC | Log2FC L-Myc (Mycl) [4]: 1.08 Log2FC | Log2FC Lin28b [4]: −1.13 Log2FC | Log2FC Myt1l [4]: 1.03 Log2FC | Log2FC N-Myc (Mycn) [4]: 1.63 Log2FC | Log2FC Nanog [4]: 1.01 Log2FC | Log2FC NeuroD1 [4]: 1.26 Log2FC | Log2FC Sirt1 [4]: 1.17 Log2FC | Log2FC Sox2 [4]: 1.25 Log2FC | Log2FC Sox11 [4]: 1.05 Log2FC | Log2FC Stat3 [4]: −1.00 Log2FC | Log2FC c-Myc (Myc) [4]: 1.14 Log2FC | Log2FC Ascl1 [5]: 1.05 Log2FC | Log2FC Klf2 [5]: 1.20 Log2FC | Log2FC Klf4 [5]: 1.13 Log2FC | Log2FC Klf5 [5]: −1.30 Log2FC | Log2FC Klf6 [5]: 1.05 Log2FC | Log2FC Klf7 [5]: 1.15 Log2FC | Log2FC Klf9 [5]: −1.05 Log2FC | Log2FC Klf13 [5]: −1.17 Log2FC | Log2FC Klf15 [5]: −1.16 Log2FC | Log2FC Klf16 [5]: −1.24 Log2FC | Log2FC L-Myc (Mycl) [5]: −1.54 Log2FC | Log2FC Lin28b [5]: 1.07 Log2FC | Log2FC Myt1l [5]: −1.17 Log2FC | Log2FC N-Myc (Mycn) [5]: 1.00 Log2FC | Log2FC Nanog [5]: −1.03 Log2FC | Log2FC NeuroD1 [5]: 1.21 Log2FC | Log2FC Sirt1 [5]: 1.02 Log2FC | Log2FC Sox2 [5]: 1.07 Log2FC | Log2FC Sox11 [5]: −1.21 Log2FC | Log2FC Stat3 [5]: −1.04 Log2FC | Log2FC c-Myc (Myc) [5]: −1.03 Log2FC
